Like-named read-outs stand apart in the source and are kept apart here.
Legend:
LC3B [1] = biological target: T1, LC3B (Homo sapiens, UniProt Q9GZQ8); experiment: AlphaScreen interaction displacement assay (GST-LC3B / biotin-LIRtide); type: binding
T1 construct: made in house; host or cells: E. coli Rosetta (DE3)
Procedure: The AlphaScreen assay contained 50 mM Tris (pH 7.5), 100 mM NaCl, 0.01% Tween 20, 2 mM DTT, 1 % DMSO and 2-30 nM GST-LC3B and biotin-LIRtide 2-30 nM. The concentrations of GST-LC3B and biotin-LIRtide were experimentally chosen from a cross-titration assay exploring the different combinations of for each batch of protein used and when a new batch of buffer was prepared.
A gene encoding for human LC3B protein inserted in a pET-GST expression vector was used as a template. Rosetta (DE3) competent cells were transformed by started procedure, plated on an LB agar plate with ampicillin (100 µg/ml) and left overnight at 37 °C. Overnight culture was prepared from a single colony and shaken at 180 rpm at 37 °C. LB medium with ampicillin was inoculated with overnight culture (10 ml per 500 ml of LB) and shaken until the optical density at 600 nm (OD600) reached a value of approximately 0.6. Protein expression was then induced with 400 µM IPTG and further incubated for 4 hours. Bacterial culture was centrifuged for 20 minutes at 6000 rpm at 4 °C. The pellet was then resuspended in lysis buffer (20 mM TRIS-HCl pH 7.5, 10 mM EDTA, 5 mM EGTA, 150 mM NaCl, 0.5 % NP40, 1 % Triton X-100, 1 mM DTT, 2 mg/ml lysozyme, 0.05 U/µl benzonase, 1x protease inhibitor cocktail). Lysate was then stored at -20 °C over night. Sample was thawed in water bath and sonicated on ice (40 % amplitude, 30 seconds pulse/30 seconds pause cycle). Lysate was centrifuged at 10000xg at 4 °C for half an hour. Meanwhile, 500 µl of glutathione sepharose beads was equilibrated with lysis buffer and then added to the supernatant. The mixture was incubated and rotated at room temperature for 2 hours. After binding of the protein to the beads, beads were spun down at 500xg at 4 °C for 5 minutes. Pellet was then washed with cold wash buffer at least four times (20 mM Tris-HCl pH 7.5, 10 mM EDTA, 5 mM EGTA, 150 mM NaCl, 1 mM DTT), dried and stored in 5 % glycerol at 4 °C.

LC3B [2] = experiment: cellular autophagy screening: LC3B spots by immunocytochemistry and automated confocal imaging; type: cell-based; details: relative to negative DMSO control, 100 µM, 1 hour; for LC3B Inhibition cell based Fold increase of LC3B spots: Table 2a; for LC3B inhibition cell based Fold increase of LC3B spots [DMSO control 1.0]: Table 1-a, n.e. means no effect
Procedure: For screening purposes, cells were seeded in 384 well plates and left over night for attachment.
Afterwards, medium was removed and 4 % (w/v) paraformaldehyde (PFA) in PBS buffer was added to the cells for 20 minutes, incubated at room temperature. Cells were permeabilized with 0.1 % (v/v) Triton X-100 for 10 min at room temperature and washed with PBS. Cells were blocked with 3 % (w/v) bovine serum albumin (BSA) in PBS for 45 minutes at 37 °C and then incubated with anti-LC3B (PM036, MBL) or anti-p62 (PM045 or M162-3, MBL) primary antibody diluted in 0.3 % BSA (1:2000 or 1:500) for 1.5-2 hours at 37 °C. Cells were washed three times with PBS.
384 well plates were then analyzed with an automated confocal microscope Opera (PerkinElmer) enabling high throughput high content screening image analysis. […] A water immersion 60x objective was used for optical slicing and stacking (5x0.5 µm stacks). […] Signal was detected with a fast gated CCD camera. Acapella software (PerkinElmer) is an algorithm based high content imaging and analysis software used in multi-parametric multiplex assays. Acapella was used to follow cell viability (i.e. number of cells) and the number of LC3B and p62 spots per cell.
The LC3B protein is a ubiquitin-like protein that can be conjugated to phosphatidylethanolamine (PE) in the membrane of the incipient autophagosome. The nonlipidated and lipidated forms are usually referred to as LC3B-I and LC3B-II, respectively. […] Autophagic flux is often inferred on the basis of LC3B-II turnover, measured by western blot (WB) or immunofluorescence (IF) in the presence and absence of lysosomal degradation. […] Lysosomal degradation can be prevented e.g. through the use of compounds that neutralize the lysosomal pH such as Bafilomycin A1 (BafA1) or chloroquine (CQ). […] An additive or supra-additive effect in LC3B-II levels (WB) and LC3B-positive punctae numbers (IF) may indicate that the treatment enhances autophagic flux. […] This assay can be complemented by simultaneous monitoring of autophagosomal substrates or autophagosomal substrate receptors (e.g. SQSTM1/p62) by WB and/or IF. For example, an increase in LC3B-II levels in combination with the accumulation of SQSTM1/p62 is indicative of a blockage of the autophagy pathway at terminal stages.

[3] = Table 2a, read-out: LC3B Inhibition cell free IC50
[4] = Table 1-a, n.e. means no effect, read-out: LC3B inhibition cell free IC50
[5] = Table 1-a, n.e. means no effect

IC50 (LC3B [1]; [4])	Compound	IC50 (LC3B [1]; [3])	LC3B Inhibition cell based Fold increase of LC3B spots (LC3B [2])	LC3B inhibition cell based Fold increase of LC3B spots [DMSO control 1.0] (LC3B [2])	LC3B inhibition cell free IC50 (LC3B [1]; [5])
–	CC(C)=CCc1cc(C(=O)Nc2c(O)c3ccc(O)c(C)c3oc2=O)ccc1O [Compound 2-1, N-(4,7-dihydroxy-8-methyl-2-oxo-2H-chromen-3-yl)-4-hydroxy-3-(3-methylbut-2-en-1-yl)benzamide]	87 µM	–	–	–
–	COC1C(OC(N)=O)C(OC(C)=O)C(Oc2ccc3c(O)c(NC(=O)c4ccc(OC(C)=O)c(CC=C(C)C)c4)c(=O)oc3c2C)OC1(C)C (stereo not drawn) [Compound 2-2]	19.3 µM	1.5	–	–
–	COC1C(OC(N)=O)C(O)C(Oc2ccc3c(O)c(NC(=O)c4ccc(O)c(CCC(C)C)c4)c(=O)oc3c2C)OC1(C)C (stereo not drawn) [Compound 2-4, 5-hydroxy-6-((4-hydroxy-3-(4-hydroxy-3-isopentylbenzamido)-8-methyl-2-oxo-2H-chromen-7-yl)oxy)-3-methoxy-2,2-dimethyltetrahydro-2H-pyran-4-y/carbamate]	4.8 µM	1.2	–	–
–	COC1C(OC(N)=O)C(OC(C)=O)C(Oc2ccc3c(O)c(NC(=O)C(Cc4ccccc4)NC(=O)OC(C)(C)C)c(=O)oc3c2C)OC1(C)C (stereo not drawn) [Compound 2-7]	145 µM	1.0	–	–
–	Cc1c(O)ccc2c(O)c(NC(=O)C(Cc3ccccc3)NC(=O)OC(C)(C)C)c(=O)oc12 (stereo not drawn) [Compound 2-8]	122 µM	1.0	–	–
–	Cc1c(O)ccc2c(O)c(NC(=O)C(CC(C)C)NC(=O)OC(C)(C)C)c(=O)oc12 (stereo not drawn) [Compound 2-9]	73.3 µM	1.2	–	–
–	Cc1c(O)ccc2c(O)c(NC(=O)C(CCc3ccccc3)NC(=O)OC(C)(C)C)c(=O)oc12 (stereo not drawn) [Compound 2-10]	155 µM	1.0	–	–
–	Cc1c(O)ccc2c(O)c(NC(=O)c3cccc(-c4ccccc4)c3)c(=O)oc12 [Compound 2-11]	63 µM	1.1	–	–
–	Cc1c(O)ccc2c(O)c(NC(=O)c3cccc(Oc4ccccc4)c3)c(=O)oc12 [Compound 2-12]	54 µM	1.1	–	–
23.6 µM	Fc1ccc(CSC2=NCN(Cc3cccnc3)CN2)cc1 [Compound I-3, 6-((4-fluorobenzyl)thio)-3-(pyridin-3-ylmethyl)-1,2,3,4-tetrahydro-1,3,5-triazine]	–	–	1.8	–
19.5 µM	c1ccc(CSC2=NCN(Cc3cccnc3)CN2)cc1 [Compound I-4, 6-(benzylthio)-3-(pyridin-3-ylmethyl)-1,2,3,4-tetrahydro-1,3,5-triazine]	–	–	1.7	–
30.9 µM	FC(F)(F)c1ccc(CSC2=NCN(Cc3cccnc3)CN2)cc1 [Compound I-5, 3-(pyridin-3-ylmethyl)-6-((4-(trifluoromethyl)benzyl)thio)-1,2,3,4-tetrahydro-1,3,5-triazine]	–	–	3.2	–
12.3 µM	COc1ccc(CSC2=NCN(Cc3cccnc3)CN2)cc1 [Compound I-6, 6-((4-methoxybenzyl)thio)-3-(pyridin-3-ylmethyl)-1,2,3,4-tetrahydro-1,3,5-triazine]	–	–	1.8	–
26.6 µM	CC(C)CCNC(=O)c1ccc(CSC2=NCN(Cc3cccnc3)CN2)cc1 [Compound I-7, N-isopentyl-4-(((5-(pyridin-3-ylmethyl)-1,4,5,6-tetrahydro-1,3,5-triazin-2-yl)thio)methyl)benzamide]	–	–	3.1	–
21 µM	Brc1cccc(CSC2=NCN(Cc3cccnc3)CN2)c1 [Compound I-8, 6-((3-bromobenzyl)thio)-3-(pyridin-3-ylmethyl)-1,2,3,4-tetrahydro-1,3,5-triazine]	–	–	3.0	–
18.5 µM	COc1cccc(CSC2=NCN(Cc3cccnc3)CN2)c1 [Compound I-9, 6-((3-methoxybenzyl)thio)-3-(pyridin-3-ylmethyl)-1,2,3,4-tetrahydro-1,3,5-triazine]	–	–	n.e.	–
1 µM	c1ccc(Oc2cccc(CSC3=NCN(Cc4cccnc4)CN3)c2)cc1 [Compound I-10, 6-((3-phenoxybenzyl)thio)-3-(pyridin-3-ylmethyl)-1,2,3,4-tetrahydro-1,3,5-triazine]	–	–	6.1	–
12.2 µM	CC(C)CCNC(=O)c1cccc(CSC2=NCN(Cc3cccnc3)CN2)c1 [Compound I-11, N-isopentyl-3-(((5-(pyridin-3-ylmethyl)-1,4,5,6-tetrahydro-1,3,5-triazin-2-yl)thio)methyl)benzamide]	–	–	n.e.	–
–	Fc1ccc(CN2CN=C(SCc3ccc(Br)cc3)NC2)cc1 [Compound I-14, 6-((4-bromobenzyl)thio)-3-(4-fluorobenzyl)-1,2,3,4-tetrahydro-1,3,5-triazine]	–	–	5.8	n.e
–	Fc1ccc(CN2CN=C(SCc3cccc(Oc4ccccc4)c3)NC2)cc1F [Compound I-18, 3-(3,4-difluorobenzyl)-6-((3-phenoxybenzyl)thio)-1,2,3,4-tetrahydro-1,3,5-triazine]	–	–	–	n.e
–	Fc1cccc(CN2CN=C(SCc3ccc(Br)cc3)NC2)c1 [Compound I-19, 6-((4-bromobenzyl)thio)-3-(3-fluorobenzyl)-1,2,3,4-tetrahydro-1,3,5-triazine]	–	–	–	n.e.
–	Fc1cccc(CN2CN=C(SCc3cccc(Oc4ccccc4)c3)NC2)c1 [Compound I-20, 3-(3-fluorobenzyl)-6-((3-phenoxybenzyl)thio)-1,2,3,4-tetrahydro-1,3,5-triazine]	–	–	–	n.e.
–	CCN(CC)CCCC(C)Nc1ccnc2cc(Cl)ccc12 (stereo not drawn) [chloroquine, reference compound]	–	4.4	4.4	–
–	CCC(=O)N1CCN(c2ccc(-n3c(=O)ccc4cnc5ccc(-c6cnc7ccccc7c6)cc5c43)cc2C(F)(F)F)CC1 [torin 1, reference compound]	–	3.1	3.1	–

Compound	IC50 (LC3B [1]; [4])	IC50 (LC3B [1]; [3])	LC3B Inhibition cell based Fold increase of LC3B spots (LC3B [2])	LC3B inhibition cell based Fold increase of LC3B spots [DMSO control 1.0] (LC3B [2])	LC3B inhibition cell free IC50 (LC3B [1]; [5])
Clc1ccc(CSC2=NCN(Cc3cccnc3)CN2)cc1 [Compound I-2, 6-((4-chlorobenzyl)thio)-3-(pyridin-3-ylmethyl)-12,3,4-tetrahydro-1,3,5-triazine]	16 µM	–	–	3.2	–
COC(=O)[C@H](CC(C)C)NC(=O)c1cccc(CSC2=NCN(Cc3cccnc3)CN2)c1 [Compound I-12, methyl(3-(((5-(pyridin-3-ylmethyl)-1,4,5,6-tetrahydro-1,3,5-triazin-2-yl)thio)methyl)benzoyl)leucinate]	8.9 µM	–	–	5.0	–

— patent EP3184514A1, “AUTOPHAGY INHIBITORS” (Deutsches Krebsforschungszentrum, priority 2015, dated 2017)
